{
  "source": "patent US20040265915A1",
  "about": "“Method to identify regulators of cellular activation using Bcl10” (priority 2003, published 2004)",
  "key": {"PKCθ-CFP": {"target": "T1, PKCθ-CFP (Mus musculus, UniProt Q02111)", "T1 construct": "expressed in transfected cells; host or cells: D10 murine CD4+ T cell clone, infected with pEneo retrovirus", "T1 sequence (Q02111 whole entry, the tested form may be a part)": "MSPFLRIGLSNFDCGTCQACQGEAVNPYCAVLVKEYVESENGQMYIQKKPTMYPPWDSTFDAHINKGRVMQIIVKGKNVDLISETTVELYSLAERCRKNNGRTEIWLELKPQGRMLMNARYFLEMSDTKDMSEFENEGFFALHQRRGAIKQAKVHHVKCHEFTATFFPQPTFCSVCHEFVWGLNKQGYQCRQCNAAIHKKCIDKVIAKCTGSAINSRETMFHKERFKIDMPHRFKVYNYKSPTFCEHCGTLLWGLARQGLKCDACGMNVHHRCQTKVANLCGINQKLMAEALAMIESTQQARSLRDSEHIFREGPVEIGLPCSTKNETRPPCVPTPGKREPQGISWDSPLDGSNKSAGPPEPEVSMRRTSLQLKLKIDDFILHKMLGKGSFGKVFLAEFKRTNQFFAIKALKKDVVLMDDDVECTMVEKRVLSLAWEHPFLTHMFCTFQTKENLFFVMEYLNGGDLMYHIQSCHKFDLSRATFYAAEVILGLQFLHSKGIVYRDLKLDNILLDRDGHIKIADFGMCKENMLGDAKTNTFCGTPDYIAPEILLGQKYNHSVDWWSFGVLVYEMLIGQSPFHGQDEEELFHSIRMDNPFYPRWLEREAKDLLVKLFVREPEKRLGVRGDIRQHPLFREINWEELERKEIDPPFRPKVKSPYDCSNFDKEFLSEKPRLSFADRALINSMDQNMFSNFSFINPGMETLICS", "assay": "PKCθ-CFP translocation in D10 T cells, fluorescence microscopy", "assay_type": "cell-based, murine", "experimental": "(§1) Murine PKCθ was fused to a C-terminal linker (GRVELGR; SEQ ID NO:7) followed by GFP or CFP (19), modified by mutations that improve folding at 37° C. (20). Two I.M.A.G.E. expressed sequence tag (EST) clones encoding murine Bcl10 were purchased (2123397 and 3026026; ResGen). Clone 3026026 was used for PCR amplification of Bc 10, adding the C-terminal linker GR, which was then fused to the previously described modified YFP gene (17). The PKCθ-CFP and Bcl10-YFP gene fusions were cloned into the retroviral vectors pEneo and pEhyg (21), respectively. Retroviral infection and cell line production were as described (17).\n(§2) To circumvent the problem that many cytoskeletal inhibitors also impair T cell/APC conjugate formation, D10 T cells were activated with phorbol ester (PMA), a stimulator of PKC. Specifically, in these experiments, D10 T cells infected with retroviruses encoding PKCθ-CFP and Bcl10-YFP received no pre-treatment, 2 hr pretreatment with 10 μg/ml nocodazole, or 1 hr pretreatment with 2 μg/ml latrunculin A. Cells then received either no treatment or were incubated for 20 min with 10 ng/ml PMA.\n(§3) CH12 B cells that had been pre-incubated with no antigen or with 250 μg/ml conalbumin protein were then added. Cells were fixed after 30 min and examined by fluorescence microscopy. […]"}, "[1]": {"system": "Bcl10-YFP POLKADOTS formation", "assay": "Bcl10-YFP POLKADOTS formation in PMA-stimulated D10 T cells with cytoskeletal inhibitors", "assay_type": "cell-based, murine", "settings": "data not shown", "experimental": "as §2"}, "microtubules": {"system": "microtubules", "assay": "Microtubule integrity (tubulin distribution) in PMA-stimulated D10 T cells", "assay_type": "cell-based, murine", "settings": "2 hr pretreatment with 10 μg/ml nocodazole, then 10 ng/ml PMA 20 min", "experimental": "as §2"}, "[2]": {"system": "Bcl10-YFP POLKADOTS formation", "assay": "Bcl10-YFP POLKADOTS formation in antigen-stimulated D10 T cells, fluorescence microscopy", "assay_type": "cell-based, murine", "settings": "bisindo 2 μM, stauro 100 nM; for Bcl10-YFP POLKADOTS formation: D10 T cells expressing Bcl10-YFP, conalbumin-loaded CH12 B cells (100 μg/ml), 30 min pre-treatment, fixed after 20 min, FIG. 4; for Bcl10 POLKADOTS formation: D10 T cells expressing PKCθ-CFP and Bcl10-YFP, CH12 B cells with 250 μg/ml conalbumin, 30 min pretreatment, fixed after 30 min, FIG. 5", "experimental": "(§4) D10-IL2 (henceforth referred to as D10) is an IL-2 dependent subclone of the CD4^+ T cell clone D10 (16), maintained as described (17). Primary T cell blasts were prepared by stimulation of spleen and lymph node cells with 100 μg/ml plate-bound anti-TCRP for 48 hr, with IL-2 added for the final 24 hr of stimulation. CH12H-2^k B cells and CHb H-2^b B cells (18) were maintained as described previously (17).\nas §1\nFluorescent and Nomarski images were acquired on an Olympus IX70 inverted microscope (Olympus America, Inc.) or a Zeiss Axiovert 200M inverted microscope (Carl Zeiss, Inc.) using a 100× plan-apochromat oil objective. The microscope was controlled by a TILLvisTRAC imaging system, driven by TILLvisION 4.0 software (TILL Photonics, GmbH). Excitation light was provided by a Polychrome IV monochromator (TILL Photonics, GmbH). Dichroic mirrors and excitation filters appropriate for each fluorophore were purchased from Chroma.\nFor fixed cell imaging, T cell conjugates were formed, mounted on coverslips, paraformaldehyde fixed, and stained with fluorophore-conjugated antibodies (Molecular Probes, Inc.) as described previously (16). For each fluorescent wavelength, z-stacks of 50 xy-planes separated by 0.3 μm were acquired, and stacks were digitally deconvolved using a constrained-iterative algorithm. TILLvisION software was used to convert z-stacks into xy projection images, by retaining only the maximal pixel value for each xy coordinate across the z-dimension.\nThe inventors next examined whether formation of Bcl10 POLKADOTS is PKC-dependent (FIG. 4 and FIG. 5). D10 T cells expressing Bcl10-YFP were incubated with CH12 B cells with no antigen, or with conalbumin-loaded CH12 B cells (100 μg/ml conalbumin). […] Cells were fixed after 20 minutes and examined by fluorescence microscopy. For each group, >200 T cells were counted, and percentages with and without POLKADOTS were determined.\nas §3"}, "[3]": {"system": "NF-κB activation (phosphorylation of IκBα)", "assay": "NF-κB activation assessed by phosphorylation of IκBα in anti-TCR stimulated D10 T cells", "assay_type": "cell-based, murine", "settings": "anti-TCR stimulation, 30 min pre-treatment with 2 μM, data not shown", "experimental": "T cells were stimulated with 100 μg/ml plate-bound anti-TCRP. Cell lysates were prepared on ice using 1× Laemmli buffer, followed by sonication. For immunoprecipitations, 5×10^6 cells were lysed for 1 hr on ice in 360 μL of a buffer consisting of 0.5% NP40, 0.5% deoxcholate, 20 mM Tris, pH 7.6, 250 mM NaCl, 3 mM EDTA, 3 mM EGTA, 1 mM PMSF, 20 μg/ml aprotinin, 100 μg/ml leupeptin, 1 mM Na3VO4, 10 mM NaF, and 1 mM DTT. Nuclei were removed by centrifugation, and lysates were incubated with polyclonal rabbit anti-Bcl10 antibody (Santa Cruz Biotechnology) for 2-3 hr at 4° C. and then for 1 hr at 4° C. with Protein A sepharose. Lysates and immunoprecipitates were separated by SDS-PAGE and blotted onto nitrocellulose. Proteins were detected by monoclonal antibodies against Bcl10 (Santa Cruz Biotechnology), and PKCθ (BD/Translabs), and polyclonal antibodies against phospho-IκBα anti-phospho-PKCθ/Thr538 (Cell Signaling Technologies), and actin (Santa Cruz Biotechnology). For phosphatase treatment, immunoprecipitates were incubated for 45 min at 30° C. with 400 U of λ-phosphatase (New England Biolabs), according to the instructions of the manufacturer. […]"}, "[4]": {"system": "Bcl10-YFP phosphorylation", "assay": "Western blot of TCR-dependent Bcl10-YFP phosphorylation in D10 T cells", "assay_type": "cell-based, murine", "settings": "anti-TCR stimulation, 30 min pre-treatment with 2 μM, data not shown", "experimental": "T cells were stimulated with 100 μg/ml plate-bound anti-TCRP. Cell lysates were prepared on ice using 1× Laemmli buffer, followed by sonication. For immunoprecipitations, 5×10^6 cells were lysed for 1 hr on ice in 360 μL of a buffer consisting of 0.5% NP40, 0.5% deoxcholate, 20 mM Tris, pH 7.6, 250 mM NaCl, 3 mM EDTA, 3 mM EGTA, 1 mM PMSF, 20 μg/ml aprotinin, 100 μg/ml leupeptin, 1 mM Na3VO4, 10 mM NaF, and 1 mM DTT. Nuclei were removed by centrifugation, and lysates were incubated with polyclonal rabbit anti-Bcl10 antibody (Santa Cruz Biotechnology) for 2-3 hr at 4° C. and then for 1 hr at 4° C. with Protein A sepharose. Lysates and immunoprecipitates were separated by SDS-PAGE and blotted onto nitrocellulose. Proteins were detected by monoclonal antibodies against Bcl10 (Santa Cruz Biotechnology), and PKCθ (BD/Translabs), and polyclonal antibodies against phospho-IκBα anti-phospho-PKCθ/Thr538 (Cell Signaling Technologies), and actin (Santa Cruz Biotechnology). For phosphatase treatment, immunoprecipitates were incubated for 45 min at 30° C. with 400 U of λ-phosphatase (New England Biolabs), according to the instructions of the manufacturer.\nThe inventors next investigated whether Bcl10 redistribution reflects biochemical modification of Bcl10. […]"}, "ERK MAP kinases": {"system": "ERK MAP kinases", "assay": "Activation of ERK MAP kinases in anti-TCR stimulated D10 T cells", "assay_type": "cell-based, murine", "settings": "anti-TCR stimulation, 30 min pre-treatment with 2 μM"}, "Bcl10": {"system": "Bcl10", "assay": "Endogenous Bcl10 enrichment at the T cell/APC interface in OTII T cell blasts, immunofluorescence microscopy", "assay_type": "cell-based, mice", "settings": "45 min with CHb APC loaded with 10 μg/ml OVA 323-339, FIG. 1B", "experimental": "as §4\nFor fixed cell imaging, T cell conjugates were formed, mounted on coverslips, paraformaldehyde fixed, and stained with fluorophore-conjugated antibodies (Molecular Probes, Inc.) as described previously (16). […]\nThe inventors sought to establish whether Bcl10, like PKCθ, might be recruited to the c-SMAC in response to specific antigen-loaded APC. […] T cell/APC conjugates were detected by immunofluorescence microscopy, using monoclonal antibodies directed against Bcl10, PKCθ and CD4 (FIG. 1A). […]\nIn contrast, in T cells stimulated by specific antigen-loaded CHb APC, PKCθ became enriched at the region of contact between the T cell and the APC. […] The mean maximal anti-Bcl10 fluorescence intensity of the enriched regions of the antigen-stimulated T cells was 7-fold higher than the maximal T cell anti-Bcl10 fluorescence of the no antigen controls (FIG. 1B; error bars representing SEM)."}},
  "data": [
    {"molecule": "CCCCCCCCCCCCCC(=O)O[C@@H]1[C@@H](C)[C@@]2(O)[C@@H](C=C(CO)C[C@]3(O)C(=O)C(C)=C[C@@H]23)[C@@H]2C(C)(C)[C@]12OC(C)=O", "note": "[PMA]", "values": [
      {"measurement": "PKCθ-CFP translocation on PMA stimulation", "setting": "PKCθ-CFP; 10 ng/ml PMA for 20 min, data not shown", "result": "translocation of PKCθ-CFP to the cell membrane"},
      {"measurement": "Bcl10-YFP POLKADOTS on PMA stimulation", "setting": "[1]; D10 T cells expressing PKCθ-CFP and Bcl10-YFP, 10 ng/ml PMA for 20 min", "result": "formation of Bcl10-YFP POLKADOTS"}
    ]},
    {"molecule": "C/C1=C/C(=O)O[C@@H]2C[C@@H](CC[C@H](C)/C=C\\C=C\\CC1)O[C@@](O)([C@@H]1CSC(=O)N1)C2", "note": "[latrunculin A]", "values": [
      {"measurement": "levels of Bcl10-YFP POLKADOTS after cytoskeletal inhibitor pretreatment", "setting": "[1]; 1 hr pretreatment with 2 μg/ml latrunculin A, then 10 ng/ml PMA 20 min", "result": "did not appear to have reduced levels"}
    ]},
    {"molecule": "COC(=O)Nc1nc2ccc(C(=O)c3cccs3)cc2[nH]1", "note": "[nocodazole]", "values": [
      {"measurement": "microtubules (distribution of tubulin)", "setting": "microtubules", "result": "disrupted"}
    ]},
    {"molecule": "CN[C@@H]1C[C@H]2O[C@@](C)([C@@H]1OC)n1c3ccccc3c3c4c(c5c6ccccc6n2c5c31)C(=O)NC4", "note": "[stauro, staurosporine]", "values": [
      {"measurement": "Bcl10-YFP POLKADOTS formation", "setting": "[2]", "result": "blocked"},
      {"measurement": "Bcl10 POLKADOTS formation", "setting": "[2]", "result": "blocked"}
    ]},
    {"molecule": "bisindolylmaleimide", "values": [
      {"measurement": "Bcl10-YFP POLKADOTS formation", "setting": "[2]", "result": "blocked"},
      {"measurement": "Bcl10 POLKADOTS formation", "setting": "[2]", "result": "blocked"},
      {"measurement": "activation of NF-κB (phosphorylation of IκBα)", "setting": "[3]", "result": "blocked"},
      {"measurement": "formation of phosphorylated Bcl10-YFP", "setting": "[4]", "result": "completely blocked"},
      {"measurement": "activation of the ERK MAP kinases", "setting": "ERK MAP kinases", "result": "partially inhibited"},
      {"measurement": "PKCθ translocation in presence of PKC inhibitors", "setting": "PKCθ-CFP; CH12 B cells with 250 μg/ml conalbumin, 30 min pretreatment, bisindo 2 μM, stauro 100 nM, FIG. 5", "result": "occurs"}
    ]},
    {"molecule": "ovalbumin: ovalbumin peptide OVA 323-339 bound to IA^b, antigen for OTII T cells (KISQAVHAAHAEINEAG; UniProt P01012 323-339, looked up, fragment)", "values": [
      {"measurement": "mean maximal anti-Bcl10 fluorescence intensity of enriched regions relative to no antigen controls", "setting": "Bcl10", "result": 7, "unit": "fold"}
    ]}
  ]
}
